The target of experiment [1] is T1, Bovine Serum Albumin (BSA) (Bos taurus, UniProt P02769).
T1 construct: gene ALB
As to the kind of experiment: intrinsic fluorescence quenching, excitation […] nm. Format: binding. The note with it: 294 K, pH 7.4, no site marker, double-log.

Experiment [2] addresses T2, COX-2 (Homo sapiens, UniProt P35354).
T2 construct: gene PTGS2; docking used 4M11
T2 sequence (P35354 18-604): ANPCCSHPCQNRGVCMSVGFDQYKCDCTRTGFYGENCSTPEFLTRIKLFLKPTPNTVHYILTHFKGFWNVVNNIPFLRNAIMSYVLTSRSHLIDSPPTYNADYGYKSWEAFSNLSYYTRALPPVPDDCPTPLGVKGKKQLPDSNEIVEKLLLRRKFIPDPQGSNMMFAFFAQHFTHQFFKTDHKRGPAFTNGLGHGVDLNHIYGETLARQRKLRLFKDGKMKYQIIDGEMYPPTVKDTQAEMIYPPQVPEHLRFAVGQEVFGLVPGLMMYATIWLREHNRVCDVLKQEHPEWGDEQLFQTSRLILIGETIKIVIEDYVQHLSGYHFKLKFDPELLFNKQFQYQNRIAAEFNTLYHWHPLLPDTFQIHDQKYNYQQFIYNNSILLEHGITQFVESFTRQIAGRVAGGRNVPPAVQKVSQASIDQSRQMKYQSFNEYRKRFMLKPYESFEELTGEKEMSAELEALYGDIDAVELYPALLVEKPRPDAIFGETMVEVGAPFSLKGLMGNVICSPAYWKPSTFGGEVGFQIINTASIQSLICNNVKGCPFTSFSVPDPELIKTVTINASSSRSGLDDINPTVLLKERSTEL
As to the kind of experiment: colorimetric COX peroxidase assay, […] nm (Cayman […]). The experiment is classed as biochemical. The note with it: read-out: Cyclooxygenase Inhibition Assay IC50 [μM] / COX-2.

Where [3] appears, read: unreliable (Table 5 rows of 5a and 5b are identical, likely a copying error).

T1 sequence (P02769 25-607): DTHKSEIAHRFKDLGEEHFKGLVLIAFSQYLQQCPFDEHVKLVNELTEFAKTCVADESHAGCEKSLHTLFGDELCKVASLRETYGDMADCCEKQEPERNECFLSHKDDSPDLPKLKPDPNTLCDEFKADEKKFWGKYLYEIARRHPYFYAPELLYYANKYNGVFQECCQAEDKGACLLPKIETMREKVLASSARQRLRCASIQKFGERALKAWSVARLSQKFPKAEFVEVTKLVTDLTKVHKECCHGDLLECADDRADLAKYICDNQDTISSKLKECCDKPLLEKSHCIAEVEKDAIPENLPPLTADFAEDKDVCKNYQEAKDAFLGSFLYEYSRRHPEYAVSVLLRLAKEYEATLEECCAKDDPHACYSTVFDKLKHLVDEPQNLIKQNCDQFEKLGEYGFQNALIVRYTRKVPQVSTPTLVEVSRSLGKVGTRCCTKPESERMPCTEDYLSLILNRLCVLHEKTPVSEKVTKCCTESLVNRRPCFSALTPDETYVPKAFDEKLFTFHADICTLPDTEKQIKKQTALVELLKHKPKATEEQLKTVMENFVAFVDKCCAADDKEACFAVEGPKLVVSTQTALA

`Cc1c2c(OCc3nnc(SCC(=O)N4CCN(c5ccccc5)CC4)o3)nn(C)c(=O)c2c(C)n1-c1ccccc1` [5a, 3,5,7-trimethyl-1-[[2-[2-oxo-2-(4-phenylpiperazin-1-yl)ethyl]sulfanyl-1,3,4-oxadiazol-5-yl]methoxy]-6-phenyl-pyrrolo[3,4-d]pyridazin-4-one]: in experiment [1] (setting [3]), the “Binding / Kb × 10^4 [dm^3.mol^-1]” value is recorded as 12.30 × 10^4 dm^3·mol^−1. The IC50 in experiment [2] is 659 µM.

Regarding `CCCCn1c(C)c2c(OCc3nnc(SCC(=O)N4CCN(c5ccccc5)CC4)o3)nn(C)c(=O)c2c1C` [5b, 6-butyl-3,5,7-trimethyl-1-[[2-[2-oxo-2-(4-phenylpiperazin-1-yl)ethyl]sulfanyl-1,3,4-oxadiazol-5-yl]methoxy]pyrrolo[3,4-d]pyridazin-4-one], the “Binding / Kb × 10^4 [dm^3.mol^-1]” value in experiment [1] (setting [3]) is listed as 12.30 × 10^4 dm^3·mol^−1. For the same molecule, the IC50 in experiment [2] turned out to be 257 µM.

As for `CCCCn1c(C)c2c(OCc3nnc(SCC(=O)N4CCN(c5ncccn5)CC4)o3)nn(C)c(=O)c2c1C` [6b, 6-butyl-3,5,7-trimethyl-1-[[2-[2-oxo-2-(4-pyrimidin-2-ylpiperazin-1-yl)ethyl]sulfanyl-1,3,4-oxadiazol-5-yl]methoxy]pyrrolo[3,4-d]pyridazin-4-one], the “Binding / Kb × 10^4 [dm^3.mol^-1]” value in experiment [1] was 8.51 × 10^4 dm^3·mol^−1. The IC50 in experiment [2] was 371 µM.

Take `Cc1c2c(OCc3nnc(SCC(=O)N4CCN(c5ncccn5)CC4)o3)nn(C)c(=O)c2c(C)n1-c1ccccc1` [6a, 3,5,7-trimethyl-1-[[2-[2-oxo-2-(4-pyrimidin-2-ylpiperazin-1-yl)ethyl]sulfanyl-1,3,4-oxadiazol-5-yl]methoxy]-6-phenyl-pyrrolo[3,4-d]pyridazin-4-one]: the “Binding / Kb × 10^4 [dm^3.mol^-1]” value in experiment [1] is on record as 7.24 × 10^4 dm^3·mol^−1. Besides, in experiment [2], the IC50 came to 160 µM.

For the origin of these results see PMC7766220, “Design, Synthesis and Comprehensive Investigations of Pyrrolo[3,4-d]pyridazinone-Based 1,3,4-Oxadiazole as New Class of Selective COX-2 Inhibitors” (International Journal of Molecular Sciences, 2020).
